Among the data in paper PMC2244712, “One-Pot, Mix-and-Read Peptide-MHC Tetramers” (PLoS ONE, 2008) are Kd and % folding values, retold here.

The target of one test is T1, HLA-A*0201 (Homo sapiens, UniProt P04439, D140Y/D185E/D98H/E176V/E277Q/G131W/G231S/I119V/I121R/I166T/I218V/L300P/L318F/N151K/N90K/P208A/P217A/Q86G/Q94H/R138H/R169H/T345S).
T1 construct: generated from synthetic codon optimized and truncated genes without the transmembrane region; BSP (BirA biotinylation substrate peptide, biotinylated in vivo or not) (C); made in house; host or cells: E. coli BL21 (DE3), pET28a+, co-transformed with a BirA vector
Nature of the test: biochemical. The test is classed as binding.

Test [1] deals with in vivo biotinylated HLA-B*4402-HATBSP heavy chain folded with ß2m (human). In words: ELISA. (In general: An ELISA detects its analyte on a solid surface through an enzyme-linked reagent.)
For test [2], the target named is in vivo biotinylated HLA-A*0201-HAT-BSP heavy chain folded with ß2m (human). Nature of the test: ELISA.
For test [3], the target named is in vivo biotinylated HLA-B*0702-BSPHAT heavy chain folded with ß2m (human). Nature of the test: ELISA.

Residues, ends and D or L forms follow the SMILES beside them.

What is called Kd is the concentration at which binding is half-saturated.

Chain of EBV EBNA3b 657-666 peptide (P03203 whole entry, looked up): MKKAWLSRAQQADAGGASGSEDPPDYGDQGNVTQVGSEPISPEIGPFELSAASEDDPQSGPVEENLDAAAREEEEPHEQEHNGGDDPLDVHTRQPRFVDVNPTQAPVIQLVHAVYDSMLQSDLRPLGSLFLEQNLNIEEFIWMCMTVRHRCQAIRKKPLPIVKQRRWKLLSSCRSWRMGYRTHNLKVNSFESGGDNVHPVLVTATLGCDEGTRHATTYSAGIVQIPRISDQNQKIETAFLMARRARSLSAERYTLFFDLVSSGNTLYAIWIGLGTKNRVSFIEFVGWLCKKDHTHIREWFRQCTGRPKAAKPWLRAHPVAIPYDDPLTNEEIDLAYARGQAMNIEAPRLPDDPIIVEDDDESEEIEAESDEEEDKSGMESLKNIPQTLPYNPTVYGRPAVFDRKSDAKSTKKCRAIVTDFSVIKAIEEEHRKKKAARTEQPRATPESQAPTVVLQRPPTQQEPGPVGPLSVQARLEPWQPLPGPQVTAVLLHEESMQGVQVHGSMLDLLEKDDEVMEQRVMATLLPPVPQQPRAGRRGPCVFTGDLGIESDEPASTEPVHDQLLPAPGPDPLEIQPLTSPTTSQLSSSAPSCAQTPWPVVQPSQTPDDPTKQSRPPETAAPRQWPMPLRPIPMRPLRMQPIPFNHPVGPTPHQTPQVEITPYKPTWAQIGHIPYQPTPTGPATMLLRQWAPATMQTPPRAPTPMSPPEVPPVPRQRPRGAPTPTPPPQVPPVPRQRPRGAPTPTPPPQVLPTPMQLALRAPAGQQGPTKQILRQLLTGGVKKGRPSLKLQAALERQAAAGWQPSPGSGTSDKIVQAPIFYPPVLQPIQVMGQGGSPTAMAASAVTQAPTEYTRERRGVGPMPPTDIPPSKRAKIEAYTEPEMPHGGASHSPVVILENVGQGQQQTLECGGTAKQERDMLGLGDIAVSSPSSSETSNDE
Chain of CMV pp65 495-503 peptide (P06725 whole entry, looked up): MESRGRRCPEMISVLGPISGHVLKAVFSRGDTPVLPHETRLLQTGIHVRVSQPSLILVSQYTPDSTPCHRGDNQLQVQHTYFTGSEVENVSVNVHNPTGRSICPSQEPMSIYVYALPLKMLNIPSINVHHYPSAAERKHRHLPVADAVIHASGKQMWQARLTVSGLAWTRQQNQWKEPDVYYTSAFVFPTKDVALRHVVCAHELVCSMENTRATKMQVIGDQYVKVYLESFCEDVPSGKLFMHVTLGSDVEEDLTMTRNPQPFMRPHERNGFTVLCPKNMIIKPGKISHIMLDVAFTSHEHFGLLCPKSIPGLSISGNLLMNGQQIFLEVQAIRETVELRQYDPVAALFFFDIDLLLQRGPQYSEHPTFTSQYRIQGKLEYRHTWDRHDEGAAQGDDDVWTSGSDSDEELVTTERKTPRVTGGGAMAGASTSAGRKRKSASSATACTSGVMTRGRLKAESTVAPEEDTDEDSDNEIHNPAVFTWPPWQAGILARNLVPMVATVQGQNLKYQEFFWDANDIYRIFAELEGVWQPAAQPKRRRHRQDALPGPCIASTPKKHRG
Chain of CMV pp65 417-426 peptide (P06725 whole entry, looked up): as above

`CC[C@H](C)[C@H](NC(=O)[C@@H](NC(=O)[C@H](CC(=O)O)NC(=O)[C@H](Cc1ccc(O)cc1)NC(=O)[C@H](CC(=O)O)NC(=O)[C@H](CC(C)C)NC(=O)[C@@H](N)Cc1ccc(O)cc1)[C@@H](C)O)C(=O)N[C@@H](Cc1ccc(O)cc1)C(=O)N[C@H](C(=O)O)C(C)C` (H-YLDYDTIYV-OH): the Kd at HLA-A*0201 is less than 10 nM.
The same measure, in the same setting: in the case of `CC(C)C[C@H](NC(=O)[C@@H](N)Cc1ccccc1)C(=O)N[C@@H](CCC(=O)O)C(=O)N[C@H](C(=O)N[C@@H](CC(=O)O)C(=O)N[C@@H](C)C(=O)NCC(=O)N[C@@H](CCCNC(=N)N)C(=O)N[C@H](C(=O)O)C(C)C)[C@@H](C)O` (H-FLETDAGRV-OH) it was 10 to 100 nM.
Compound “EBV EBNA3b 657-666 peptide (from UniProt P03203 657-666)” displayed a % folding in test [1] of 100%.
As to `CC[C@H](C)[C@H](NC(=O)[C@H](CC(N)=O)NC(=O)[C@@H](NC(=O)[C@H](C)NC(=O)[C@H](CO)NC(=O)[C@H](CC(=O)O)NC(=O)[C@H](CO)NC(=O)[C@H](CC(C)C)NC(=O)[C@@H](N)Cc1ccc(O)cc1)[C@@H](C)CC)C(=O)O` (H-YLSDSAINI-OH), at HLA-A*0201, the Kd was less than 10 nM.
The same measure, in the same setting: in the case of `CC[C@H](C)[C@H](NC(=O)[C@H](CCCCN)NC(=O)[C@H](CCCCN)NC(=O)[C@H](CS)NC(=O)[C@H](C)NC(=O)[C@H](CC(=O)O)NC(=O)[C@H](CO)NC(=O)[C@H](CC(C)C)NC(=O)[C@H](C)N)C(=O)O` (H-ALSDACKKI-OH) it was greater than 1000 nM; in that of `CC(C)C[C@H](NC(=O)[C@@H](N)Cc1ccc(O)cc1)C(=O)N[C@@H](CO)C(=O)N[C@H](C(=O)N[C@@H](CCC(=O)O)C(=O)N[C@@H](CCCNC(=N)N)C(=O)N[C@@H](CC(=O)O)C(=O)N[C@@H](Cc1c[nH]cn1)C(=O)N[C@H](C(=O)O)C(C)C)[C@@H](C)O` (H-YLSTERDHV-OH), 10 to 100 nM.
Turning to “CMV pp65 495-503 peptide (from UniProt P06725 495-503)”, the % folding in test [2] stood at 95%.
In test [3], “CMV pp65 417-426 peptide (from UniProt P06725 417-426)” came in with a % folding of 100%.
